From US20260356819A1, “OXOISOINDOLINYL-SUBSTITUTED […] DERIVATIVE AND USE THEREOF” (GLUETACS THERAPEUTICS (SHANGHAI) CO., LTD., priority 2023, published 2026)

Experiments:
Format in all cases: cell-based
Settings in all cases: compounds at 50 nM and 500 nM
IKZF1 = biological target: T1, IKZF1 (Homo sapiens, UniProt Q13422+Q96SW2); experiment: Western blot degradation of IKZF1 in hPBMCs (24 h)
T1 construct: The supernatant was aspirated as the extracted total cell protein; endogenous in cells; host or cells: human peripheral blood mononuclear cells (hPBMCs)
Method in brief: (§1)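 PBMC Western blot, 24 h treatment; test levels 50 nM and 500 nM. Band density ÷ internal control, normalised → % remaining; degradation (%) = 1 − remaining.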

CK1α = biological target: T2, CK1α (Homo sapiens, UniProt P48729+Q96SW2); experiment: Western blot degradation of CK1α in hPBMCs (24 h)
T2 construct: The supernatant was aspirated as the extracted total cell protein; endogenous in cells; host or cells: human peripheral blood mononuclear cells (hPBMCs)
Method in brief: as §1

IKZF3 = biological target: T3, IKZF3 (Homo sapiens, UniProt Q96SW2+Q9UKT9); experiment: Western blot degradation of IKZF3 in hPBMCs (24 h)
T3 construct: The supernatant was aspirated as the extracted total cell protein; endogenous in cells; host or cells: human peripheral blood mononuclear cells (hPBMCs)
Method in brief: as §1

GSPT1 = biological target: T4, GSPT1 (Homo sapiens, UniProt P15170+Q96SW2); experiment: Western blot degradation of GSPT1 in hPBMCs (24 h)
T4 construct: The supernatant was aspirated as the extracted total cell protein; endogenous in cells; host or cells: human peripheral blood mononuclear cells (hPBMCs)
Method in brief: as §1

IKZF2 = biological target: T5, IKZF2 (Homo sapiens, UniProt Q96SW2+Q9UKS7); experiment: Western blot degradation of IKZF2 in hPBMCs (24 h)
T5 construct: The supernatant was aspirated as the extracted total cell protein; endogenous in cells; host or cells: human peripheral blood mononuclear cells (hPBMCs)
Method in brief: as §1

WEE1 = biological target: T6, WEE1 (Homo sapiens, UniProt P30291+Q96SW2); experiment: Western blot degradation of WEE1 in hPBMCs (24 h)
T6 construct: The supernatant was aspirated as the extracted total cell protein; endogenous in cells; host or cells: human peripheral blood mononuclear cells (hPBMCs)
Method in brief: as §1

T4 sequence (P15170 whole entry): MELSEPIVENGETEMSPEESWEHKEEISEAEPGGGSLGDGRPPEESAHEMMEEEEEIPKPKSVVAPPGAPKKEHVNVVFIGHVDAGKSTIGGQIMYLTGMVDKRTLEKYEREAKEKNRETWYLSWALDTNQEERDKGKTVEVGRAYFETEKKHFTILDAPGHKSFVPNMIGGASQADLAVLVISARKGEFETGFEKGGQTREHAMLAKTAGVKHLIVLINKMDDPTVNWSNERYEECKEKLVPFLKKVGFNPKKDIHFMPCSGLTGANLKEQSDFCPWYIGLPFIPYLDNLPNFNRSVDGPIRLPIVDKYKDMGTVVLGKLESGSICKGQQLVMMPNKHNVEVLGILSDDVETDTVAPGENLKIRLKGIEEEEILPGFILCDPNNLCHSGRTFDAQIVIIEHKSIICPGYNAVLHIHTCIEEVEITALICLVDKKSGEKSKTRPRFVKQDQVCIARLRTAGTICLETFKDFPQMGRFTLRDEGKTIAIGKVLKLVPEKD
T4 sequence (Q96SW2 whole entry): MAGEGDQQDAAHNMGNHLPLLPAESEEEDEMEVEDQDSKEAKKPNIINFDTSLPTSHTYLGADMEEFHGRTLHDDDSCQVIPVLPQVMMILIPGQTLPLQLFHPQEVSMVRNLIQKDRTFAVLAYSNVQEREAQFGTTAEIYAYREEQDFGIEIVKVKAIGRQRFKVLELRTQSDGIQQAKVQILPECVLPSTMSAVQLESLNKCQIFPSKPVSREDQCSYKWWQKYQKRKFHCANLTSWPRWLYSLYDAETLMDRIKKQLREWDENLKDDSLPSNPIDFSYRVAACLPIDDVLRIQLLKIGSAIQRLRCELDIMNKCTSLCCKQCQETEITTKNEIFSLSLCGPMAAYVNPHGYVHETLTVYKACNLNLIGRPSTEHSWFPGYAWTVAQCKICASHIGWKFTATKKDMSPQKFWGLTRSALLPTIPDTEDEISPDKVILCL
T4 sequence (Q16531 whole entry partner): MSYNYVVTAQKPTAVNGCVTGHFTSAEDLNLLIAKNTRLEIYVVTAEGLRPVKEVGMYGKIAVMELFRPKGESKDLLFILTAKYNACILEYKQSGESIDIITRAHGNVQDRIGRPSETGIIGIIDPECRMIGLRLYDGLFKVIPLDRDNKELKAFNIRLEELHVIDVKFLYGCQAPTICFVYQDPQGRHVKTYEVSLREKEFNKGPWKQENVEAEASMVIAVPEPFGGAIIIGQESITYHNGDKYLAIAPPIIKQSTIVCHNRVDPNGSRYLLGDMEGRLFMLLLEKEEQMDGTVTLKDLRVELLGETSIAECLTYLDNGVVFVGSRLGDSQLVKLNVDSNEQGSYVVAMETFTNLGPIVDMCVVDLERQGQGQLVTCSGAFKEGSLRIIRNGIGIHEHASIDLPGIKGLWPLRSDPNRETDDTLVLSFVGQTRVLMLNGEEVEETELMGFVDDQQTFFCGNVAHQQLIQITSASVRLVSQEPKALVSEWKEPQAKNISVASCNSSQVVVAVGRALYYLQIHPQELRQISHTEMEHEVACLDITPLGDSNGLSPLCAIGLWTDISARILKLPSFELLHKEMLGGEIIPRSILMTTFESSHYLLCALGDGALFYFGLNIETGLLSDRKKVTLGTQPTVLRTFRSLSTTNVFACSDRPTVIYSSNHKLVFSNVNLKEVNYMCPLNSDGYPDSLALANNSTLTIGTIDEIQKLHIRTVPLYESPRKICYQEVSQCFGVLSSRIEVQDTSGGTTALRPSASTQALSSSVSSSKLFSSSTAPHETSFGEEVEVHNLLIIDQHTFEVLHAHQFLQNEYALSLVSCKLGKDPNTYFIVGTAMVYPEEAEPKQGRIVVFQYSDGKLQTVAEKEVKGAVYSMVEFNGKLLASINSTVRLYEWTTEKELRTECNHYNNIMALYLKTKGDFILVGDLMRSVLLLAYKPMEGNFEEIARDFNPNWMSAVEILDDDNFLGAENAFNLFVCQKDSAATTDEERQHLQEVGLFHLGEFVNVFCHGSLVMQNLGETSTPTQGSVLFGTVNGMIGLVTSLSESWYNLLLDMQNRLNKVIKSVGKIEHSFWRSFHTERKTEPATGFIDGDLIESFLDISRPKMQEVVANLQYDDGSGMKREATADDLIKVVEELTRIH
T5 sequence (Q9UKS7 whole entry): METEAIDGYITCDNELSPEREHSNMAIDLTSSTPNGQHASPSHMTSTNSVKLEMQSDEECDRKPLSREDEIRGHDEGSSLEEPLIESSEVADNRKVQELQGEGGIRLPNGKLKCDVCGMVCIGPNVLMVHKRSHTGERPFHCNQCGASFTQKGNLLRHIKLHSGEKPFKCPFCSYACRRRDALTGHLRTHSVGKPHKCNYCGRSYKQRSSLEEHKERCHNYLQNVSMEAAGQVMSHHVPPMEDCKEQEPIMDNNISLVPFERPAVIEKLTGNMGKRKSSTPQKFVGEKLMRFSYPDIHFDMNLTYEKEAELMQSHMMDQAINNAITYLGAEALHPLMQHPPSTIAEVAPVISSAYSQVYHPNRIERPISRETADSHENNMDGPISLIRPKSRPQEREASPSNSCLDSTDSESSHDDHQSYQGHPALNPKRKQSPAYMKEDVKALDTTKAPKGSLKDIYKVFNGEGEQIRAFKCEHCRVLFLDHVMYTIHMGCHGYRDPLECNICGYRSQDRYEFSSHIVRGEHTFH
T5 sequence (Q96SW2 whole entry): as the sequence (Q96SW2 whole entry) above
T5 sequence (Q16531 whole entry partner): as the sequence (Q16531 whole entry partner) above
T3 sequence (Q9UKT9 whole entry): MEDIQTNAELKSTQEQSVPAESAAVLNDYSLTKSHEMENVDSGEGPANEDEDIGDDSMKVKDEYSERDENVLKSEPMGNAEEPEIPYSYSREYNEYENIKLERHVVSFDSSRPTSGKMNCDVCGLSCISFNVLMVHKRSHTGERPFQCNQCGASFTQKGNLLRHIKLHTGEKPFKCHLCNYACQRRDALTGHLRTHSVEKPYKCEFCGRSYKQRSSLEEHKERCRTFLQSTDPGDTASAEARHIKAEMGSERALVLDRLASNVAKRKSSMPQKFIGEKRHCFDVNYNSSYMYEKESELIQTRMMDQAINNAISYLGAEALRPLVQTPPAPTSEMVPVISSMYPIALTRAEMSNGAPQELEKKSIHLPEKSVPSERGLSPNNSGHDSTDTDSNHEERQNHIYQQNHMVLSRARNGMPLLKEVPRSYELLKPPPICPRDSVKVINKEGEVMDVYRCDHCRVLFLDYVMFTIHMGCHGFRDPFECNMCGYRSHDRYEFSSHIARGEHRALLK
T3 sequence (Q96SW2 whole entry): as the sequence (Q96SW2 whole entry) above
T3 sequence (Q16531 whole entry partner): as the sequence (Q16531 whole entry partner) above
T2 sequence (P48729 whole entry): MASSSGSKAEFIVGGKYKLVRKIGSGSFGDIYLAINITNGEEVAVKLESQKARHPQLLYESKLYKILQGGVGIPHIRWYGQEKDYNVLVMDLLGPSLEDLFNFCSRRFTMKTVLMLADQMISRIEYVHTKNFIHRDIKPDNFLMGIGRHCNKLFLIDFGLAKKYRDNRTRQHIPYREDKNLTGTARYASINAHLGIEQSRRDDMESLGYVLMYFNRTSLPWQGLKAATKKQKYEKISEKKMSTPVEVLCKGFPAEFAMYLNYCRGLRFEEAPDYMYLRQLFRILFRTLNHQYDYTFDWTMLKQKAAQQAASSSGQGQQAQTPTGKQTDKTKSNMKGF
T2 sequence (Q96SW2 whole entry): as the sequence (Q96SW2 whole entry) above
T2 sequence (Q16531 whole entry partner): as the sequence (Q16531 whole entry partner) above
T1 sequence (Q13422 whole entry): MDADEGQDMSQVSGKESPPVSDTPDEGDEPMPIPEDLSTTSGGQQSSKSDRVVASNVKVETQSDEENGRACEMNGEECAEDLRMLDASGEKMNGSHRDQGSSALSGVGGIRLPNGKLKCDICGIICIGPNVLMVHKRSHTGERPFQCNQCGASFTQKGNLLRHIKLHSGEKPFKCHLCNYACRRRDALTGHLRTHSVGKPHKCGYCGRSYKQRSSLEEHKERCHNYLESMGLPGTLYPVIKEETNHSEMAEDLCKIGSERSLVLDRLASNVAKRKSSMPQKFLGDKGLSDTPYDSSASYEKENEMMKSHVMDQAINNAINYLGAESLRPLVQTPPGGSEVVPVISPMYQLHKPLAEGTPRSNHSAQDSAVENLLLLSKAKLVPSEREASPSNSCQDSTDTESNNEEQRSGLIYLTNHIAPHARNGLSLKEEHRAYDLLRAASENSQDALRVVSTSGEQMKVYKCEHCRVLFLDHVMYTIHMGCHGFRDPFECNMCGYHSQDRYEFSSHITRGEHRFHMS
T1 sequence (Q96SW2 whole entry): as the sequence (Q96SW2 whole entry) above
T1 sequence (Q16531 whole entry partner): as the sequence (Q16531 whole entry partner) above

Row | Compound | IKZF1 substrate protein remaining % (IKZF1) | CK1α substrate protein remaining % (CK1α) | IKZF3 substrate protein remaining % (IKZF3) | GSPT1 substrate protein remaining % (GSPT1) | IKZF2 substrate protein remaining % (IKZF2) | WEE1 substrate protein remaining % (WEE1)
1 | O=C1CCN(N2C(=O)c3ccc(CN4CCn5c(nnc5C(F)(F)F)C4)cc3C2=O)C(=O)N1 [GT-05253, 2-(2,4-dioxotetrahydropyrimidin-1(2H)-yl)-5-((3-(trifluoromethyl)-5,6-dihydro-[1,2,4]triazolo[4,3-a]pyrazin-7 (8H)-yl)methyl)isoindoline-1,3-dione] | B (80%< substrate protein remaining % ≤100%) | B (80%< substrate protein remaining % ≤100%) | B (80%< substrate protein remaining % ≤100%) | A (0% ≤ substrate protein remaining % ≤80%) | B (80%< substrate protein remaining % ≤100%) | B (80%< substrate protein remaining % ≤100%)
2 | O=C1CCN(N2C(=O)c3ccc(CN4CCc5sccc5C4)cc3C2=O)C(=O)N1 [GT-05254, 5-((6,7-dihydrothieno[3,2-c]pyridin-5 (4H)-yl)methyl)-2-(2,4-dioxotetrahydropyrimidin-1(2H)-yl)isoindoline-1,3-dione] | B (80%< substrate protein remaining % ≤100%) | B (80%< substrate protein remaining % ≤100%) | B (80%< substrate protein remaining % ≤100%) | A (0% ≤ substrate protein remaining % ≤80%) | B (80%< substrate protein remaining % ≤100%) | B (80%< substrate protein remaining % ≤100%)
3 | O=C1CCN(N2C(=O)c3ccc(CN4CCC(c5c[nH]c6cc(F)ccc56)CC4)cc3C2=O)C(=O)N1 [GT-05259, 2-(2,4-dioxotetrahydropyrimidin-1(2H)-yl)-5-((4-(6-fluoro-1H-indol-3-yl)piperidin-1-yl)methyl)isoindoline-1,3-dione] | A (0% ≤ substrate protein remaining % ≤80%) | B (80%< substrate protein remaining % ≤100%) | B (80%< substrate protein remaining % ≤100%) | A (0% ≤ substrate protein remaining % ≤80%) | A (0% ≤ substrate protein remaining % ≤80%) | B (80%< substrate protein remaining % ≤100%)
4 | O=C1CCN(N2C(=O)c3ccc(CN4CCC(N5CCc6cc(F)ccc65)CC4)cc3C2=O)C(=O)N1 [GT-05260, 2-(2,4-dioxotetrahydropyrimidin-1(2H)-yl)-5-((4-(5-fluoroindolin-1-yl)piperidin-1-yl)methyl)isoindoline-1,3-dione] | A (0% ≤ substrate protein remaining % ≤80%) | B (80%< substrate protein remaining % ≤100%) | B (80%< substrate protein remaining % ≤100%) | B (80%< substrate protein remaining % ≤100%) | A (0% ≤ substrate protein remaining % ≤80%) | A (0% ≤ substrate protein remaining % ≤80%)
5 | O=C1CCN(N2C(=O)c3ccc(CN4CC=C(c5ccnc6cc(F)ccc56)CC4)cc3C2=O)C(=O)N1 [GT-05261, 2-(2,4-dioxotetrahydropyrimidin-1(2H)-yl)-5-((4-(7-fluoroquinolin-4-yl)-3,6-dihydropyridin-1(2H)-yl)methyl)isoindoline-1,3-dione] | B (80%< substrate protein remaining % ≤100%) | B (80%< substrate protein remaining % ≤100%) | B (80%< substrate protein remaining % ≤100%) | B (80%< substrate protein remaining % ≤100%) | A (0% ≤ substrate protein remaining % ≤80%) | B (80%< substrate protein remaining % ≤100%)
6 | O=C1CCN(N2C(=O)c3ccc(CN4CCN(C(c5ccccc5)c5ccccc5)CC4)cc3C2=O)C(=O)N1 [GT-05267, 5-((4-benzhydrylpiperazin-1-yl)methyl)-2-(2,4-dioxotetrahydropyrimidin-1(2H)-yl)isoindoline-1,3-dione] | B (80%< substrate protein remaining % ≤100%) | A (0% ≤ substrate protein remaining % ≤80%) | A (0% ≤ substrate protein remaining % ≤80%) | A (0% ≤ substrate protein remaining % ≤80%) | B (80%< substrate protein remaining % ≤100%) | B (80%< substrate protein remaining % ≤100%)
7 | O=C1CCN(N2C(=O)c3ccc(CN4CCN(C(c5ccc(F)cc5)c5ccc(F)cc5)CC4)cc3C2=O)C(=O)N1 [GT-05268, 5-((4-(bis(4-fluorophenyl)methyl)piperazin-1-yl)methyl)-2-(2,4-dioxotetrahydropyrimidin-1(2H)-yl)isoindoline-1,3-dione] | B (80%< substrate protein remaining % ≤100%) | A (0% ≤ substrate protein remaining % ≤80%) | A (0% ≤ substrate protein remaining % ≤80%) | A (0% ≤ substrate protein remaining % ≤80%) | B (80%< substrate protein remaining % ≤100%) | B (80%< substrate protein remaining % ≤100%)
8 | O=C1CCN(N2C(=O)c3ccc(CN4CCN(C(c5ccc(Cl)cc5)c5ccc(Cl)cc5)CC4)cc3C2=O)C(=O)N1 [GT-05269, 5-((4-(bis(4-chlorophenyl)methyl)piperazin-1-yl)methyl)-2-(2,4-dioxotetrahydropyrimidin-1(2H)-yl)isoindoline-1,3-dione] | B (80%< substrate protein remaining % ≤100%) | A (0% ≤ substrate protein remaining % ≤80%) | B (80%< substrate protein remaining % ≤100%) | A (0% ≤ substrate protein remaining % ≤80%) | B (80%< substrate protein remaining % ≤100%) | B (80%< substrate protein remaining % ≤100%)
9 | Cc1nc(C2CCN(Cc3ccc4c(c3)C(=O)N(N3CCC(=O)NC3=O)C4=O)CC2)c2ccsc2n1 [GT-05272, 2-(2,4-dioxotetrahydropyrimidin-1(2H)-yl)-5-((4-(2-methylthieno[2,3-d]pyrimidin-4-yl)piperidin-1-yl)methyl)isoindoline-1,3-dione] | B (80%< substrate protein remaining % ≤100%) | B (80%< substrate protein remaining % ≤100%) | B (80%< substrate protein remaining % ≤100%) | B (80%< substrate protein remaining % ≤100%) | A (0% ≤ substrate protein remaining % ≤80%) | B (80%< substrate protein remaining % ≤100%)
10 | Cc1sc2ncnc(C3=CCN(Cc4ccc5c(c4)C(=O)N(N4CCC(=O)NC4=O)C5=O)CC3)c2c1C [GT-05273, 5-((4-(5,6-dimethylthieno[2,3-d]pyrimidin-4-yl)-3,6-dihydropyridin-1(2H)-yl)methyl)-2-(2,4-dioxotetrahydropyrimidin-1(2H)-yl)isoindoline-1,3-dione] | B (80%< substrate protein remaining % ≤100%) | B (80%< substrate protein remaining % ≤100%) | B (80%< substrate protein remaining % ≤100%) | B (80%< substrate protein remaining % ≤100%) | A (0% ≤ substrate protein remaining % ≤80%) | B (80%< substrate protein remaining % ≤100%)
11 | Cn1cc(C2=CCN(Cc3ccc4c(c3)C(=O)N(N3CCC(=O)NC3=O)C4=O)CC2)c2ccc(F)cc21 [GT-05276, 2-(2,4-dioxotetrahydropyrimidin-1(2H)-yl)-5-((4-(6-fluoro-1-methyl-1H-indol-3-yl)-3,6-dihydropyridin-1(2H)-yl)methyl)isoindoline-1,3-dione] | B (80%< substrate protein remaining % ≤100%) | B (80%< substrate protein remaining % ≤100%) | A (0% ≤ substrate protein remaining % ≤80%) | A (0% ≤ substrate protein remaining % ≤80%) | B (80%< substrate protein remaining % ≤100%) | B (80%< substrate protein remaining % ≤100%)
12 | Cc1ccc(N2CCN(Cc3ccc4c(c3)C(=O)N(N3CCC(=O)NC3=O)C4=O)CC2)s1 [GT-05309, 2-(2,4-dioxotetrahydropyrimidin-1(2H)-yl)-5-((4-(5-methylthiophen-2-yl)piperazin-1-yl)methyl)isoindoline-1,3-dione] | B (80%< substrate protein remaining % ≤100%) | B (80%< substrate protein remaining % ≤100%) | B (80%< substrate protein remaining % ≤100%) | A (0% ≤ substrate protein remaining % ≤80%) | B (80%< substrate protein remaining % ≤100%) | B (80%< substrate protein remaining % ≤100%)
